Laboratory results: US20230399358A1, “IMMUNOGLOBULIN PURIFICATION PEPTIDES AND THEIR USE” (North Carolina State University, priority 2019, published 2023)

Test system: human polyclonal IgG in CHO-S cell culture fluid
Assay: Static purification of IgG from CHO cell culture supernatant on peptide-Toyopearl resins, SDS-PAGE densitometry
Conditions: Gel B
Method: Measurement of IgG binding by peptide-based chromatographic adsorbents: For initial studies, 35 mg of MWRGWQ (SEQ ID NO:2)-Toyopearl, RHLGWF (SEQ ID NO:3)-Toyopearl, WQRHGI (SEQ ID NO:1)-Toyopearl, GWLHQR (SEQ ID NO:4)-Toyopearl, and HWRGWV (SEQ ID NO:18)-Toyopearl (control) resins were equilibrated in PBS pH 7.4, reaching a swollen volume of 0.1 mL, and subsequently incubated with 1 mg/mL IgG in 0.205 mg/mL CHO cell culture supernatant for 30 minutes. The resins were subsequently washed several times with PBS to remove non-specifically bound proteins. Elution was performed with 100 mM glycine buffer pH 2.5. Flowthrough and elution fractions were collected and analyzed by SDS PAGE under reducing conditions. The resulting gels were stained with Coomassie staining. Further, 25 mg of the adsorbents MWRGWQ (SEQ ID NO:2)-Toyopearl, NIFRGWQ (SEQ ID NO:21)-Toyopearl, MWRAWQ (SEQ ID NO:5)-Toyopearl, MWRGFQ (SEQ ID NO:7)-Toyopearl, MWRGWN (SEQ ID NO:22)-Toyopearl, (NorL) WRGWQ (SEQ ID NO:23)-Toyopearl, MGRGWQ (SEQ ID NO:24)-Toyopearl, MWRWQ (SEQ ID NO:6)-Toyopearl, MWRGGQ (SEQ ID NO:26)-Toyopearl, GWRGWQ (SEQ ID NO:8)-Toyopearl, WQRHGI (SEQ ID NO:1)-Toyopearl, WNRHGI (SEQ ID NO:12)-Toyopearl, WQRAGI (SEQ ID NO:28)-Toyopearl, WQRHAI (SEQ ID NO:11)-Toyopearl, WQRHGL (SEQ ID NO:9)-Toyopearl, FQRHGI (SEQ ID NO:29)-Toyopearl, and WQRHGV (SEQ ID NO:10)-Toyopearl resins were equilibrated in PBS pH 7.4, reaching a swollen volume of 0.1 mL, and subsequently incubated with 1 mg/mL IgG in PBS at pH 7.4 for 30 minutes. The amount of unbound IgG in the supernatant samples was quantified by Bradford assay and utilized to determine the IgG binding % by the peptide variants.
Characterization of IgG-binding peptide variants WQRHGI (SEQ ID NO:1), MWRGWQ (SEQ ID NO:2), RHLGWF (SEQ ID NO:3), and GWLHQR (SEQ ID NO:4) in competitive conditions: The four selected sequence variants were tested for their ability to purify human IgG from a CHO cell culture supernatant and found largely to mirror their in silico predictions. Even though they seemed to underperform in silico, RHLGWF (SEQ ID NO:3) and GWLHQR (SEQ ID NO:4) were tested alongside WQRHGI (SEQ ID NO:1) and MWRGWQ (SEQ ID NO:2) in these conditions in order to confirm their ability to bind IgG and examine their selectivity as predicted in silico. The feedstock was prepared by spiking human polyclonal IgG into a clarified null CHO-S cell culture fluid to obtain an IgG concentration of 1 mg/mL and a CHO HCP concentration of 0.205 mg/mL. An aliquot of 500 μL was loaded onto each peptide adsorbent in static conditions for 30 min. Following a washing step with PBS to remove loosely bound proteins, a first elution step was conducted using 0.1 M glycine buffer pH 2.5 to remove all bound proteins. Flow through fractions and pH 2.5 elution fractions were loaded neat and analyzed by SDS PAGE (FIGS. 6A-6B). The values of IgG purity in the eluted fractions were determined by densitometric analysis of the corresponding lanes on the gels, and are reported in Table 9.

Substance: WQRHGI
- % Purity (IgG over total proteins) (lane FT (flow-through)): 52.71%
- % Purity (IgG over total eluted proteins) (lane R (pH 2.5)): 78.79%
